The target in assay [1] is T1, Chk1 (Homo sapiens, UniProt O14757).
T1 sequence (O14757 1-476): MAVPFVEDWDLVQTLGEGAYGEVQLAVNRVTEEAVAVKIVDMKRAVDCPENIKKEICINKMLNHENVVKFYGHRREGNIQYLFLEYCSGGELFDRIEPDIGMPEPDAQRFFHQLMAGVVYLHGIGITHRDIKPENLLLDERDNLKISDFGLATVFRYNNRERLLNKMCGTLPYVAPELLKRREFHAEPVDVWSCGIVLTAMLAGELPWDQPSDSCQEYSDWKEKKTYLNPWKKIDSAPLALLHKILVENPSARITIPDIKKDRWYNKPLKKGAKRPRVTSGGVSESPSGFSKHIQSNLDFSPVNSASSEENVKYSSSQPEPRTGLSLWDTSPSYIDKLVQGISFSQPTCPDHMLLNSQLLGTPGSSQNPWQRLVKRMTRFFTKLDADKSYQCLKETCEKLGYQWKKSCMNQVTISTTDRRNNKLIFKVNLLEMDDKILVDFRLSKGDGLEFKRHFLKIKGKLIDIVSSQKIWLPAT
The experiment in a line: Chk1 biochemical assay (CHK1/substrate peptide filter binding). As to conditions: 60 μM ATP, 0.75 nM Chk1 enzyme. As for the experimental part: The effect of compounds on Chk1 biochemical activity can be determined using a CHK1/substrate peptide filter binding assay. In this assay, a synthetic peptide based on the amino acid sequence residues 206-225 of Cdc25, is used as a phospho-acceptor substrate for recombinant Chk1 protein kinase. Using γ-^33P-ATP as the phospho-donor substrate, Chk1 transfers the radioactive γ-^33phosphate group to the synthetic peptide. The reaction is measured by capturing the peptide substrate on a cation exchange paper filter plate and scintillation counting of emitted beta particles.
The kinase reactions (40 μL reaction volumes) are performed in 96-well V-bottom polystyrene plates. Reactions are initiated with the addition of Chk1 enzyme. […]
Following Chk1 enzyme addition, the reactions are incubated at room temperature for 90 min, and then terminated with the addition of 140 μL of phosphoric acid. […] After sitting for 4 h at room temperature, the radioactivity in the plate is measured using a MicroBeta Trilux microplate scintillation counter (Perkin Elmer).
For IC50 determination, the percent inhibition for each concentration is calculated using the scintillation count ratio from controls run on each plate. […] Absolute IC50 values are calculated from the resulting curve. […]

In assay [2] the test system is Calu-6 lung tumor xenograft. The assay is described as follows: Calu-6 tumor xenograft model, subcutaneous administration of Chk1 inhibitor. Format: in vivo, nude mice. On the procedure:
The ability of Chk1 inhibitors to potentiate tumor killing by DNA damaging agents can be determined in vivo using the Calu-6 lung and HT-29 colon tumor xenograft efficacy models. Calu-6 lung cancer cells are cultured in growth media (MEM with Earle's Balanced Salt Solution with L-glutamine supplemented with 10% (v/v) heat inactivated FBS, 1×MEM non-essential amino acids, 1× sodium pyruvate) and HT-29 colon cancer cells (ATCC) are cultured in growth media, (McCoy's 5A medium supplemented with 10% FBS) and expanded.
Cells are harvested and washed twice with phosphate buffered saline and 5×10^6 cells (HT-29) or 1×10^6 a cells (Calu-6) in growth media (without serum) are mixed with equal volume of BD Matrigel™ matrix, then injected subcutaneously into the flank of nude mice (CD-1 nu/nu).
At about day 16 after implant ([…]), gemcitabine is formulated fresh in saline daily and administered to animals by intraperitoneal route at 60 mg/kg dose. Twenty four hours later animals are administered the compound of Example 3, in 0.2% Tween-80/0.5% methylcellulose subcutaneously BID. After […], dosing is repeated for three additional cycles (Q4Dx4 with the compound of Example 3 offset+24 hours), Tumor growth inhibition (TGI) is calculated as the percent reduction in mean tumor size of a compound treated group from the mean tumor size of the vehicle-treated control group. Compounds within the scope of the invention are tested in this assay run substantially as above.

Where a name gives a salt, the structure may show the parent alone.

By IC50 is commonly meant the concentration that gives 50% inhibition. In assay [1], `COc1nc(C)ccc1-c1cc(Nc2cncc(O[C@@H]3CCCNC3)n2)[nH]n1` [Example 1, (R)-[5-(2-Methoxy-6-methyl-pyridin-3-yl)-2H-pyrazol-3-yl]-[6-(piperidin-3-yloxy)-pyrazin-2-yl]-amine] came in with an IC50 of under 1 nM. As to `COc1nc(C)ccc1-c1cc(Nc2cncc(O[C@@H]3CCCNC3)n2)[nH]n1` [Example 3, (R)-[5-(2-Methoxy-6-methyl-pyridin-3-yl)-2H-pyrazol-3-yl]-[6-(piperidin-3-yloxy)-pyrazin-2-yl]-amine acetic acid salt], in assay [2] (Calu 6, Example 3 40 mpk subcutaneous BID alone), the “% TGI at day 47” value was −19%. Also, the “anti-tumor activity in combination with gemcitabine” value in assay [2] (Calu-6 xenograft, subcutaneous BID, gemcitabine 60 mg/kg ip) is reported as “excellent dose dependent anti-tumor activity”.

Values taken from patent publication US9067920B2, “Compounds useful for inhibiting Chk1” (Eli Lilly and Company, priority 2010, dated 2015).
